The subject of one experiment is FM55 melanoma cells. Briefly: Melanin assay (melanogenesis) in moderately-pigmented FM55 melanoma. It counts as cell-based, human. The settings on record: 72 h; for Changes in melanin levels, FM55 % change: L-18 0.001%, L-19 1%, L-20 0.5%, L-21 10 μg/ml, L-22 1%, L-23 0.05 μg/ml, IBMX 100 μM, NH4Cl 100 μM, niacinamide 10 μM, vs basal; for Melanin content, FM55 (pg/cell): same doses as E3, basal 9.92. The protocol: Cells were then washed 3-times with sterile PBS and supplemented with 350 μl of either fresh serum-free RPMI medium (melanoma cells) or starved serum-free and BPE-free melanocyte medium (EM) and incubated at 37° C. and 5% CO2 for 24 h. Cells were then washed with sterile PBS 3-times and incubated with IBMX 1×10^-4 M at 37° C. and 5% CO2 for 12, 24, and 72 h. Cells were then gently washed 3-times with sterile PBS and fixed in ice-cold methanol for 10 minutes at -20° C. Slides were stored at -20° C. until immunocytochemistry was performed. […] The melanin standards were pipetted into a 96 well plate to produce a calibration curve for the assessment of melanin content in the test samples. 400 μl of 1 M NaOH was added to each cell pellet and dissolved on a heat block (100° C.) for 15 minutes. The pellets were vortexed vigorously and the solubilized pellet was pipetted into the same 96-well plate. The optical densities of the sample were read at […] on a DYNEX REVELATION 4.02 program. Melanin content of each test sample was read from the calibration curve. […] In addition IBMX and NH4Cl (positive melanocytic modulators) and niacinamide (negative modulator) were used as controls. […] Controls: Melanocytic modulators: IBMX (100 μM), NH4Cl (100 μM), and niacinamide (10 μM). (A) Melanin content was determined spectrophotometrically (475 nm) after sodium hydroxide solubilisation. […] (B). Results were expressed as the change in melanin content (pg/cell) compared to unstimulated control levels. Means are ±SEM of 3 independent experiments with *P<0.05, **P<0.01, ***P<0.001.

For experiment [1], the system named is tyrosinase. Briefly: DOPA oxidase detection for tyrosinase activity in pigmented normal human melanocytes. It counts as cell-based. The settings on record: 72 h; for Changes in tyrosinase activity, F52 EMc % change / % Change in EM Tyrosinase Activity vs. Basal EM level (i.e. 0), EM: L-18 0.001%, L-23 0.05 μg/ml, IBMX 100 μM, niacinamide 10 μM; for Changes in tyrosinase activity, F52 EMc % change: L-19 1%, L-20 0.5%, L-21 10 μg/ml, L-22 1%, NH4Cl 100 μM, vs basal; for % Change in EM Tyrosinase Activity vs. Basal EM level (i.e. 0), EM: EM monoculture (F52). The protocol: The cells were prepared for SDS-PAGE and transblotted onto PVDF membranes. 70 μg of un-reduced protein extract without boiling was pipetted into the appropriate wells of 8% SDS-PAGE gels. […] The L-DOPA reaction was stopped by washing the membrane in distilled water and the membrane was scanned. […] In addition IBMX and NH4Cl (positive melanocytic modulators) and niacinamide (negative modulator) were used as controls. […] Normal human epidermal melanocytes (Female-52; p5) were treated for 72 h with L-18 (0.001%), L-19 (1%), L-20 (0.5%), L-21 (10 μg/ml), LVMH-22 (1%) and L-23 (0.05 μg/ml). Controls: Melanocytic modulators: IBMX (100 μM), NH4Cl (100 μM), and niacinamide (10 μM). (A) Protein extracts were electroblotted and membranes stained with L-DOPA for the estimation of tyrosinase activity.

Experiment [2] deals with melanosome transfer from melanocytes to matched keratinocytes. Briefly: Quantitative analysis of gp100-positive melanosome transfer in melanocyte-keratinocyte co-culture. The settings on record: for gp 100+ Spots/KC / % Change of Melanin Transfer vs. Basal: 24 h; for gp 100+ Spots/KC: co-culture F39, L-18 0.001%, L-19 1%, L-20 0.5%, L-21 10 μg/ml, L-22 1%, L-23 0.05 μg/ml, basal 27.3; for % Change of Melanin Transfer vs. Basal: same doses as E10. It counts as cell-based, human. The protocol: Quantitative analysis of melanosome transfer: Fully-matched epidermal melanocytes (p4) and epidermal keratinocytes (p2) from 4 normal individuals (i.e., F39; F67; F54; F52) were maintained in 8-well Lab-Tek® chamber slides at a total cell density of 2×10^4 cells/well and in a ratio of 1 melanocyte to 10 normal keratinocytes. The co-culture was maintained for further 24 h before washing 3-times with sterile PBS before incubation with starved medium alone, or L-18 (0.001%), L-19 (1%), L-20 (0.5%), L-21 (10 μg/ml), L-22 (1%) and L-23 (0.05 μg/ml) for 12 and 72 h. Controls included IBMX (100 μM) and niacinamide (10 μM). Cells were then processed for immunofluorescence staining with gp100 to assess melanosome transfer to keratinocytes.
Evaluation of melanosome transfer was performed by counting fluorescent gp100-positive spots within recipient keratinocytes in 5 random microscopic fields per well at 100× magnification (oil-immersion) in 3 independent experiments. To avoid counting melanin granules that may still be associated with melanocytes, we only counted gp100-positive spots within keratinocytes that were not in direct contact with melanocytes.
Gp100 immunostaining provides a powerful tracking method for the global assessment of melanin transfer to keratinocytes, and for the evaluation of melanocyte phenotype modulators (Singh et al., 2008). […] In this assay melanosome transfer from melanocytes to matched keratinocytes under basal (i.e., unstimulated) conditions was determined at an average of 27.3 gp100-positive spots per keratinocyte. However, this was increased almost 4-fold after 24 h stimulation of co-cultures with IBMX to 99.5 gp100-positive spots per keratinocyte. Conversely, niacinamide reduced melanosome transfer by 28% (19.6 gp100-positive spots per keratinocyte; p<0.01; a result that correlates with its clinical use as a lightener of cutaneous pigmentation (Hakozaki et al, 2002; Greatens et al., 2005).
Means are ±SEM of 4 independent experiments with **P<0.01, ***P<0.001.

Experiment [3] relates to tyrosinase. Kind of experiment: Tyrosinase activity in normal human melanocyte and keratinocyte co-culture (EM:KC). The settings on record: 72 h; for % Change in EM Tyrosinase Activity of stimulated EM vs. stimulated EM-EK) level (i.e. 12.16): co-culture versus monoculture under the same stimulus; for % Change in EM Tyrosinase Activity vs. Basal EM level (i.e. 0), EM-EK: matched EM-EK co-culture (F52), L-18 0.001%, L-23 0.05 μg/ml, IBMX 100 μM, niacinamide 10 μM, basal co-culture +12.16. It counts as cell-based. The protocol:
The cells were prepared for SDS-PAGE and transblotted onto PVDF membranes. 70 μg of un-reduced protein extract without boiling was pipetted into the appropriate wells of 8% SDS-PAGE gels. […] The L-DOPA reaction was stopped by washing the membrane in distilled water and the membrane was scanned. […] Normal human epidermal melanocyte culture (Female-52; p5) and matched co-culture […] MC-KC were treated for 72 h with L-18 (0.001%), L-23 (0.05 μg/ml). Controls: Melanocytic modulators: IBMX (100 μM), and niacinamide (10 μM). Negative control lane: Keratinocytes only (A) Protein extracts were electroblotted and membranes stained with L-DOPA for the estimation of tyrosinase activity. (B) Densitometric scanning of band intensities and values were expressed as the fold increase compared to unstimulated control levels. Means are ±SEM of 3 independent experiments with *P<0.05, **P<0.01, ***P<0.001.

As to `CC(C)Cn1c(=O)n(C)c(=O)c2[nH]cnc21` [IBMX], in the experiment with FM55 melanoma cells, the “Changes in melanin levels, FM55 % change” value is “+250.8%” and the “Melanin content, FM55 (pg/cell)” value is listed as “(34.8) pg/cell”. Moreover, in the experiment with FM55 melanoma cells (FM55 melanoma cells, doses as E3), the “effect on melanin content compared with basal levels” value is listed as “visible increases in melanogenesis”. Also, in the experiment on tyrosinase [1], the “Changes in tyrosinase activity, F52 EMc % change” value is “+72.47%” and the “% Change in EM Tyrosinase Activity vs. Basal EM level (i.e. 0), EM” value is reported as “+56.51%”. Moreover, in the experiment on tyrosinase [1] (normal melanocytes (EM), doses as E5), the “effect on tyrosinase (dopa oxidase) activity compared with basal levels” value is “dramatic increase in dopa oxidase activity of tyrosinase”. In addition, the “gp 100+ Spots/KC” value in experiment [2] (IBMX 100 μM, niacinamide 10 μM) is recorded as 99.5 Spots/KC. In experiment [2], the “% Change of Melanin Transfer vs. Basal” value is “+264%”. In experiment [2] (24 h stimulation of co-cultures, IBMX 100 μM), the “melanosome transfer increased, fold versus basal” value was approximately 4 fold. Besides, in the experiment with tyrosinase [3], the “% Change in EM Tyrosinase Activity of stimulated EM vs. stimulated EM-EK) level (i.e. 12.16)” value is listed as “+23.57%” and the “% Change in EM Tyrosinase Activity vs. Basal EM level (i.e. 0), EM-EK” value is listed as “+93.41%”.
As to `NC(=O)c1cccnc1` [niacinamide], in the experiment on FM55 melanoma cells, the “Changes in melanin levels, FM55 % change” value is −5.94% and the “Melanin content, FM55 (pg/cell)” value was “(9.33) pg/cell”. Further, in the experiment on tyrosinase [1], the “Changes in tyrosinase activity, F52 EMc % change” value is recorded as −4.58% and the “% Change in EM Tyrosinase Activity vs. Basal EM level (i.e. 0), EM” value was −2.12%. The “gp 100+ Spots/KC” value in experiment [2] (IBMX 100 μM, niacinamide 10 μM) is 19.6 Spots/KC. Also, the “% Change of Melanin Transfer vs. Basal” value in experiment [2] is on record as −28%. The “melanosome transfer reduced by” value in experiment [2] (niacinamide 10 μM, p<0.01) was determined as 28%. Also, in the experiment with tyrosinase [3], the “% Change in EM Tyrosinase Activity of stimulated EM vs. stimulated EM-EK) level (i.e. 12.16)” value is reported as −18.84% and the “% Change in EM Tyrosinase Activity vs. Basal EM level (i.e. 0), EM-EK” value is −20.50%.
